Test results from patent US12662489B2 (Sitryx Therapeutics Limited, priority 2023, dated 2026).

Assays:
[1] = molecular target: T1, MTHFD1 recombinant human enzyme (Homo sapiens, UniProt P11586); test: MTHFD1 inhibition assay (NAD(P)H-Glo luminescence); settings: MTHFD1 IC50, recombinant human enzyme 200 nM, NADP, band
T1 sequence (P11586 2-291 limits assumed): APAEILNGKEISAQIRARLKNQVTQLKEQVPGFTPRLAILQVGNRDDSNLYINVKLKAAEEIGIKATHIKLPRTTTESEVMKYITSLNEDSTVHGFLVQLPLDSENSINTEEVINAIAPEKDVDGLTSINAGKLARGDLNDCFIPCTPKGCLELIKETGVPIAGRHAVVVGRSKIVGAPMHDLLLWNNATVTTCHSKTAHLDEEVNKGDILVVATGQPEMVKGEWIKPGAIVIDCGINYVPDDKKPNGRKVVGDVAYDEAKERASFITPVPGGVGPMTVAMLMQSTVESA

[2] = molecular target: T2, MTHFD2 recombinant human enzyme (Homo sapiens, UniProt P13995); test: MTHFD2 inhibition assay (NAD(P)H-Glo luminescence); settings: for MTHFD1/MTHFD2 IC50 ratio: selectivity of MTHFD2 inhibition over MTHFD1, band
T2 sequence (P13995 36-350): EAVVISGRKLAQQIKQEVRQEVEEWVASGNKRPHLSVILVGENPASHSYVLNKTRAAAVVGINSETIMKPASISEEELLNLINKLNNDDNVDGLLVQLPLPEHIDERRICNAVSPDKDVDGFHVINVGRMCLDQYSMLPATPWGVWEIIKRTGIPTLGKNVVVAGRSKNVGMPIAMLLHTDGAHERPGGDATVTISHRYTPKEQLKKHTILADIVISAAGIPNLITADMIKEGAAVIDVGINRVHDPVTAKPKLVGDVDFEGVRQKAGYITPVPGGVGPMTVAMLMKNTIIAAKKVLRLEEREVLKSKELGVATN

Compound	IC50 [1]	IC50 [2]	MTHFD1/MTHFD2 IC50 ratio [2]
COC[C@H]1CN(c2cc(C)c3c4c(c(=O)oc3c2C)CN(C(=O)c2ccc(C(=O)NS(=O)(=O)C3(C)CC3)c(N3C5CCC3CC5)c2)CC4)CCN1C [Example 48, (R)-2-(7-azabicyclo[2.2.1]heptan-7-yl)-4-(8-(3-(methoxymethyl)-4-methylpiperazin-1-yl)-7,10-dimethyl-5-oxo-1,3,4,5-tetrahydro-2H-chromeno[3,4-c]pyridine-3-carbonyl)-N-((1-methylcyclopropyl)sulfonyl)benzamide]	1 to 10 nM	1 to 10 nM	F (<3)
CCOc1c(C(=O)NS(=O)(=O)N2C3CCC2CC3)ccc(C(=O)N2CCc3c(c(=O)oc4c(CC)c(N5CCN(C)[C@@H](COC)C5)ccc34)C2)c1F [Example 215, (R)-N-((7-azabicyclo[2.2.1]heptan-7-yl)sulfonyl)-2-ethoxy-4-(7-ethyl-8-(3-(methoxymethyl)-4-methylpiperazin-1-yl)-5-oxo-1,3,4,5-tetrahydro-2H-chromeno[3,4-c]pyridine-3-carbonyl)-3-fluorobenzamide]	10 to 100 nM	100 to 1000 nM	F (<3)
COC[C@H]1CN(c2cc(C)c3c4c(c(=O)oc3c2C)CN(C(=O)c2ccc(C(=O)NS(=O)(=O)N3CCCC3)c(N3C5CCC3CC5)c2)CC4)CCN1C [Example 121, (R)-2-(7-azabicyclo[2.2.1]heptan-7-yl)-4-(8-(3-(methoxymethyl)-4-methylpiperazin-1-yl)-7,10-dimethyl-5-oxo-1,3,4,5-tetrahydro-2H-chromeno[3,4-c]pyridine-3-carbonyl)-N-(pyrrolidin-1-ylsulfonyl)benzamide]	1 to 10 nM	10 to 100 nM	F (<3)
COC[C@H]1CN(c2ccc3c4c(c(=O)oc3c2C)CN(C(=O)c2ccc(C(=O)NS(=O)(=O)N3CCCC3)c(O[C@@H]3C[C@@H]5C[C@@H]5C3)c2F)CC4)CCN1C [Example 63, 2-(((1R,3r,5S)-bicyclo[3.1.0]hexan-3-yl)oxy)-3-fluoro-4-(8-((R)-3-(methoxymethyl)-4-methylpiperazin-1-yl)-7-methyl-5-oxo-1,3,4,5-tetrahydro-2H-chromeno[3,4-c]pyridine-3-carbonyl)-N-(pyrrolidin-1-ylsulfonyl)benzamide]	1 to 10 nM	1 to 10 nM	F (<3)

Results, then the compound that gave them:

IC50 [1]	IC50 [2]	MTHFD1/MTHFD2 IC50 ratio [2]	Compound
100 to 1000 nM	10 to 100 nM	F (<3)	COC[C@H]1CN(c2cc(C)c3c4c(c(=O)oc3c2C)CN(C(=O)c2ccc(C(=O)NS(=O)(=O)N(C)C)c(N3CCCC5(CC5)C3)c2)CC4)CCN1C [Example 120, (R)-N-(N,N-dimethylsulfamoyl)-4-(8-(3-(methoxymethyl)-4-methylpiperazin-1-yl)-7,10-dimethyl-5-oxo-1,3,4,5-tetrahydro-2H-chromeno[3,4-c]pyridine-3-carbonyl)-2-(5-azaspiro[2.5]octan-5-yl)benzamide]
10 to 100 nM	10 to 100 nM	F (<3)	COC[C@H]1CN(c2cc(C)c3c4c(c(=O)oc3c2C)CN(C(=O)c2ccc(C(=O)NS(=O)(=O)C3(C)CC3)c(OC3CCC(F)(F)CC3)c2F)CC4)CCN1C [Example 86, (R)-2-((4,4-difluorocyclohexyl)oxy)-3-fluoro-4-(8-(3-(methoxymethyl)-4-methylpiperazin-1-yl)-7,10-dimethyl-5-oxo-1,3,4,5-tetrahydro-2H-chromeno[3,4-c]pyridine-3-carbonyl)-N-((1-methylcyclopropyl)sulfonyl)benzamide]
100 to 1000 nM	10 to 100 nM	H (>9.0 to 30)	COC[C@H]1CN(c2cc(C)c3c4c(c(=O)oc3c2C)CN(C(=O)c2ccc(C(=O)NS(=O)(=O)N3CCCCC3)c(OC)c2F)CC4)CCN1C [Example 239]
